Reference: ChEMBL document CHEMBL1799917, “Isolation, sequencing, and structure-activity relationships of cyclotides” (J Nat Prod, 2010)
≈ marks a conversion by molar mass, not a printed value. Where a SMILES comes first, the peptide text is derived from it. Bridges are numbered along the chain shown (N, C = ends).

Columns and labels:
Staphylococcus aureus = assay: Antimicrobial activity against Staphylococcus aureus ATCC 29213; assay type: functional
[1] = Hemolytic activity in human type A RBC; assay type: ADME, cell-based, Erythrocyte; details: human type A red blood cells, read-out: HD50 (the source's name)
Proteus vulgaris = assay: Antimicrobial activity against Proteus vulgaris ATCC 49132; assay type: functional
Candida tropicalis = assay: Antimicrobial activity against Candida tropicalis ATCC 37097; assay type: functional
CEM-SS (Homo sapiens) = assay: Cytotoxicity against human CEM-SS cells
Kluyveromyces marxianus = assay: Antimicrobial activity against Candida kefyr ATCC 37095; assay type: functional
[2] = tested on: Human immunodeficiency virus 1; assay: Antiviral activity against HIV1; assay type: functional, organism-based

CC[C@H](C)[C@@H]1NC(=O)[C@@H]2CSSC[C@@H]3NC(=O)[C@H](C(C)C)NC(=O)[C@H](CCCCN)NC(=O)[C@H](CC(N)=O)NC(=O)[C@H](CCCCN)NC(=O)[C@@H]4CSSC[C@H](NC(=O)[C@H](CO)NC(=O)[C@H](CCC(=O)O)NC(=O)CNC(=O)[C@H](CSSC[C@H](NC(=O)CNC(=O)[C@H](CC(C)C)NC(=O)[C@H](C)NC(=O)[C@H](C)NC(=O)[C@H](CO)NC1=O)C(=O)N[C@@H](CO)C(=O)N4)NC(=O)[C@@H]1CCCN1C(=O)[C@H]([C@@H](C)CC)NC(=O)CNC(=O)[C@H](CC(N)=O)NC(=O)[C@H](CCCNC(=N)N)NC(=O)[C@H](Cc1ccc(O)cc1)NC3=O)C(=O)N[C@@H](C(C)C)C(=O)N[C@@H](Cc1c[nH]c3ccccc13)C(=O)N[C@@H]([C@@H](C)CC)C(=O)N1CCC[C@H]1C(=O)N2 [CIRCULIN A] (cyclo(AALGCSCKNKVCYRNGIPCGESCVWIPCIS); disulfide 5-19, 7-23, 12-28)
MIC (Staphylococcus aureus): 0.19 µM (≈ 0.599 µg/mL) | HC50 [1]: 1.02 mM | MIC (Proteus vulgaris): 54.6 µM (≈ 172 µg/mL) | MIC (Candida tropicalis): 19.4 µM (≈ 61.1 µg/mL) | IC50 (CEM-SS (Homo sapiens)): 500 nM | MIC (Kluyveromyces marxianus): 18.6 µM (≈ 58.6 µg/mL)

CC[C@H](C)[C@@H]1NC(=O)[C@@H]2CSSC[C@@H]3NC(=O)[C@H](C(C)C)NC(=O)[C@H](CCCCN)NC(=O)[C@H](CO)NC(=O)[C@H](CCCCN)NC(=O)[C@@H]4CSSC[C@H](NC(=O)[C@H](CO)NC(=O)[C@H](CCC(=O)O)NC(=O)CNC(=O)[C@H](CSSC[C@H](NC(=O)CNC(=O)[C@H](C)NC(=O)[C@H](C(C)C)NC(=O)[C@H](CO)NC(=O)[C@H]([C@@H](C)O)NC1=O)C(=O)N[C@@H](CO)C(=O)N4)NC(=O)[C@@H]1CCCN1C(=O)[C@H]([C@@H](C)CC)NC(=O)CNC(=O)[C@H](CC(N)=O)NC(=O)[C@H](CCCNC(=N)N)NC(=O)[C@H](Cc1ccc(O)cc1)NC3=O)C(=O)N[C@@H](C(C)C)C(=O)N[C@@H](Cc1ccccc1)C(=O)N[C@@H]([C@@H](C)CC)C(=O)N1CCC[C@H]1C(=O)N2 [CIRCULIN C] (cyclo(AGCSCKSKVCYRNGIPCGESCVFIPCITSV); disulfide 3-17, 5-21, 10-26)
IC50 (CEM-SS (Homo sapiens)): 500 nM

CC[C@H](C)[C@@H]1NC(=O)[C@H](CO)NC(=O)[C@H]([C@@H](C)O)NC(=O)[C@H](Cc2ccc(O)cc2)NC(=O)[C@@H]2CSSC[C@@H]3NC(=O)[C@H](C(C)C)NC(=O)[C@H](CCCCN)NC(=O)[C@H](CC(N)=O)NC(=O)[C@H](CCC(=O)O)NC(=O)[C@@H]4CSSC[C@H](NC(=O)[C@H](CO)NC(=O)[C@H](CCC(=O)O)NC(=O)CNC(=O)[C@H](CSSC[C@H](NC(=O)[C@H](CC(N)=O)NC(=O)[C@H](Cc5ccccc5)NC1=O)C(=O)N[C@@H](CCCCN)C(=O)N4)NC(=O)[C@@H]1CCCN1C(=O)[C@H]([C@@H](C)CC)NC(=O)[C@H](CCCCN)NC(=O)[C@H](CC(=O)O)NC(=O)[C@H](Cc1cnc[nH]1)NC(=O)[C@H](Cc1ccc(O)cc1)NC3=O)C(=O)N[C@@H](C(C)C)C(=O)N[C@@H](Cc1c[nH]c3ccccc13)C(=O)N[C@@H]([C@@H](C)CC)C(=O)N1CCC[C@H]1C(=O)N2 [CIRCULIN D] (cyclo(CENKVCYHDKIPCGESCVWIPCYTSIFNCK); disulfide 1-17, 6-22, 13-29)
IC50 (CEM-SS (Homo sapiens)): 500 nM

CC[C@H](C)[C@@H]1NC(=O)[C@H](CCCCN)NC(=O)[C@H](CC(=O)O)NC(=O)[C@H](Cc2cnc[nH]2)NC(=O)[C@H](Cc2ccc(O)cc2)NC(=O)[C@@H]2CSSC[C@@H]3NC(=O)[C@@H]4CCCN4C(=O)[C@H]([C@@H](C)CC)NC(=O)[C@H](Cc4c[nH]c5ccccc45)NC(=O)[C@H](C(C)C)NC(=O)[C@@H]4CSSC[C@H](NC(=O)[C@H](CCCCN)NC(=O)[C@H](CSSC[C@H](NC(=O)[C@@H]5CCCN5C1=O)C(=O)NCC(=O)N[C@@H](CCC(=O)O)C(=O)N[C@@H](CO)C(=O)N4)NC(=O)[C@H](CC(N)=O)NC(=O)[C@H](Cc1ccccc1)NC(=O)[C@H](C(C)C)NC(=O)[C@H](CO)NC(=O)[C@H]([C@@H](C)O)NC(=O)[C@H](CC(C)C)NC3=O)C(=O)N[C@@H](CCC(=O)O)C(=O)N[C@@H](CC(N)=O)C(=O)N[C@@H](CCCCN)C(=O)N[C@@H](C(C)C)C(=O)N2 [CIRCULIN E] (cyclo(CENKVCYHDKIPCGESCVWIPCLTSVFNCK); disulfide 1-17, 6-22, 13-29)
IC50 (CEM-SS (Homo sapiens)): 500 nM

CC[C@H](C)[C@@H]1NC(=O)[C@H](C)NC(=O)[C@H](C)NC(=O)[C@H](CO)NC(=O)[C@H]([C@@H](C)CC)NC(=O)[C@@H]2CSSC[C@@H]3NC(=O)[C@H](C(C)C)NC(=O)[C@H](CCCCN)NC(=O)[C@H](CC(N)=O)NC(=O)[C@H](CCCCN)NC(=O)[C@@H]4CSSC[C@H](NC(=O)[C@H](CO)NC(=O)[C@H](CCC(=O)O)NC(=O)CNC(=O)[C@H](CSSC[C@H](NC(=O)CNC1=O)C(=O)N[C@@H](CO)C(=O)N4)NC(=O)[C@@H]1CCCN1C(=O)[C@H]([C@@H](C)CC)NC(=O)[C@H](C)NC(=O)[C@H](CCCNC(=N)N)NC(=O)[C@H](Cc1ccc(O)cc1)NC3=O)C(=O)N[C@@H](C(C)C)C(=O)N[C@@H](Cc1c[nH]c3ccccc13)C(=O)N[C@@H]([C@@H](C)CC)C(=O)N1CCC[C@H]1C(=O)N2 [CIRCULIN F] (cyclo(AAIGCSCKNKVCYRAIPCGESCVWIPCIS); disulfide 5-18, 7-22, 12-27)
IC50 (CEM-SS (Homo sapiens)): 500 nM

CC(C)C[C@@H]1NC(=O)[C@H](C(C)C)NC(=O)[C@H](Cc2ccc(O)cc2)NC(=O)[C@@H]2CSSC[C@@H]3NC(=O)[C@H]([C@@H](C)O)NC(=O)[C@@H]4CSSC[C@H](NC(=O)[C@H](C)NC(=O)[C@H]([C@@H](C)O)NC(=O)CNC(=O)[C@H](CC(N)=O)NC(=O)[C@H](CCCCN)NC(=O)[C@H](Cc5ccccc5)NC(=O)[C@H](CSSC[C@H](NC(=O)[C@@H]5CCCN5C1=O)C(=O)N[C@@H](Cc1ccccc1)C(=O)N[C@@H]([C@@H](C)O)C(=O)N[C@@H](C(C)C)C(=O)NCC(=O)N4)NC(=O)[C@H](CCC(N)=O)NC(=O)[C@H](CO)NC(=O)[C@H](CO)NC(=O)[C@H]([C@@H](C)O)NC3=O)C(=O)NCC(=O)N[C@@H](CCC(=O)O)C(=O)N[C@@H](CO)C(=O)N2 [CYCLOVIOLIN B] (cyclo(ACGESCYVLPCFTVGCTCTSSQCFKNGT); disulfide 2-16, 6-18, 11-23)
EC50 [2]: 130 nM | IC50 (CEM-SS (Homo sapiens)): 560 nM

CC[C@H](C)[C@@H]1NC(=O)CNC(=O)[C@H](CC(N)=O)NC(=O)[C@H](CCCNC(=N)N)NC(=O)[C@H](Cc2ccc(O)cc2)NC(=O)[C@@H]2CSSC[C@@H]3NC(=O)[C@@H]4CCCN4C(=O)[C@H]([C@@H](C)CC)NC(=O)[C@H](Cc4ccccc4)NC(=O)[C@H](C(C)C)NC(=O)[C@@H]4CSSC[C@H](NC(=O)[C@H](CO)NC(=O)[C@H](CSSC[C@H](NC(=O)[C@@H]5CCCN5C1=O)C(=O)NCC(=O)N[C@@H](CCC(=O)O)C(=O)N[C@@H](CO)C(=O)N4)NC(=O)CNC(=O)[C@H](C)NC(=O)[C@H](C(C)C)NC(=O)[C@H]([C@@H](C)O)NC(=O)[C@H]([C@@H](C)O)NC(=O)[C@H](CC(C)C)NC3=O)C(=O)N[C@@H](CCCCN)C(=O)N[C@@H](CC(N)=O)C(=O)N[C@@H](CCCCN)C(=O)N[C@@H](C(C)C)C(=O)N2 [CYCLOVIOLIN C] (cyclo(AGCSCKNKVCYRNGIPCGESCVFIPCLTTV); disulfide 3-17, 5-21, 10-26)
EC50 [2]: 130 nM | IC50 (CEM-SS (Homo sapiens)): 560 nM

CC[C@H](C)[C@@H]1NC(=O)[C@H](C)NC(=O)[C@H](C)NC(=O)[C@H](CO)NC(=O)[C@H]([C@@H](C)CC)NC(=O)[C@@H]2CSSC[C@@H]3NC(=O)[C@H](C(C)C)NC(=O)[C@H](CCCCN)NC(=O)[C@H](CC(N)=O)NC(=O)[C@H](CCCCN)NC(=O)[C@@H]4CSSC[C@H](NC(=O)[C@H](CO)NC(=O)[C@H](CCC(=O)O)NC(=O)CNC(=O)[C@H](CSSC[C@H](NC(=O)CNC1=O)C(=O)N[C@@H](CO)C(=O)N4)NC(=O)[C@@H]1CCCN1C(=O)[C@H](Cc1ccccc1)NC(=O)CNC(=O)[C@H](CC(N)=O)NC(=O)[C@H](CCCNC(=N)N)NC(=O)[C@H](Cc1ccc(O)cc1)NC3=O)C(=O)N[C@@H](C(C)C)C(=O)N[C@@H](Cc1ccccc1)C(=O)N[C@@H]([C@@H](C)CC)C(=O)N1CCC[C@H]1C(=O)N2 [CYCLOVIOLIN D] (cyclo(AAIGCSCKNKVCYRNGFPCGESCVFIPCIS); disulfide 5-19, 7-23, 12-28)
EC50 [2]: 130 nM | IC50 (CEM-SS (Homo sapiens)): 560 nM

CC[C@H](C)[C@@H]1NC(=O)[C@H](C)NC(=O)[C@H](C)NC(=O)[C@H](CO)NC(=O)[C@H]([C@@H](C)CC)NC(=O)[C@@H]2CSSC[C@@H]3NC(=O)[C@H](C(C)C)NC(=O)[C@H](CCCCN)NC(=O)[C@H](CC(N)=O)NC(=O)[C@H](CCCCN)NC(=O)[C@@H]4CSSC[C@H](NC(=O)[C@H](CO)NC(=O)[C@H](CCC(=O)O)NC(=O)CNC(=O)[C@H](CSSC[C@H](NC(=O)CNC1=O)C(=O)N[C@@H](CO)C(=O)N4)NC(=O)[C@@H]1CCCN1C(=O)[C@H]([C@@H](C)CC)NC(=O)[C@H](C(C)C)NC(=O)CNC(=O)[C@H](CC(N)=O)NC(=O)[C@H](CCCNC(=N)N)NC(=O)[C@H](Cc1ccc(O)cc1)NC3=O)C(=O)N[C@@H](C(C)C)C(=O)N[C@@H](Cc1ccccc1)C(=O)N[C@@H]([C@@H](C)CC)C(=O)N1CCC[C@H]1C(=O)N2 [CYCLOVIOLN A] (cyclo(AAIGCSCKNKVCYRNGVIPCGESCVFIPCIS); disulfide 5-20, 7-24, 12-29)
EC50 [2]: 130 nM | IC50 (CEM-SS (Homo sapiens)): 560 nM
